What is called EC50 is the midpoint of the concentration-response curve. The low end stands for higher potency in that assay, the high end for lower potency in that assay.

The structures appear in SMILES notation. Numbered stars: 1 amine (or outer) side, 2 acyl side, 3 side chain; on linkers, the order of the positions; unused ones are H or OH. Bridge positions count the residues as written; N and C are the ends. Square brackets hold non-standard residues; d marks the D form. Peptide text beside a SMILES is read from it. Nle(6-ylidene) = O=C([C@H](CCCC=[*:3])N[*:1])[*:2]; tBuAla = CC(C)(C)C[C@H](N)C(=O)O; R5 = C=CCCC[C@@](C)(N)C(=O)O; S5 = C=CCCC[C@](C)(N)C(=O)O

One series is described as follows: circular dichroism. The conditions noted are these: 10 mM phosphate; pH 7.5; 25 °C; 50 uM.
A short description of series [1]: CD spectroscopy, percentage of helicity. The format is physicochemical. As to conditions: CD at 222 nm, 10 mM phosphate buffer pH 7.5, 50 μM peptide, 25° C. How it is done:
The secondary structure of the peptides was then characterized by circular dichroism (DC) as described below.
The circular dichroism spectra were acquired on a Jasco J-810 and on a Chirascan spectropolarimeter. The samples were prepared in 10 mM phosphate buffer, pH 7.5, at a peptide concentration of 50 μM. Data were recorded at 25° C. by stepscan from 180 nm to 260 nm in a 0.1 cm pathlength quartz cell using 0.2 nm wavelength increments, 1 nm bandwidth and a response time of 0.5 sec. Each spectrum was an average of three measurements and was subtracted from buffer baseline. The data were converted to per residue molar ellipticity units [θ] (deg·cm2·dmol−1·residue−1) and smoothed using the Igor software. The percentage of helicity was calculated as it follows:
[formula] whereby CD222=molar ellipticity at 222 nm in [mdeg], N=number of amino acids in the peptide and C=peptide molar concentration [mol/l].

The subject of another series is RSV-mCherry. The format is cell-based, HRSV. The method, then:
The inhibitory activity of the peptides of the invention was assessed in HEp-2 cells as described below:
A mCherry-expressing virus recently developed (Rameix-Welti et al., 2014, Nat. Commun., 5:5104) was used to avoid the cumbersome manipulations required with the GFP-expressing virus.
HEp-2 cells were seeded at 5×10^4 cells per well in 96 wells plate the day before the infection. Peptides were 2-fold serially diluted in DMSO (11 dilutions), then further diluted in MEM medium and pre-incubated for 15-20 minutes with 0.2 MOI of RSV-mCherry (Rameix-Welti et al., 2014, supra). Following the washing of Hep-2 cells with MEM without phenol red medium, the cells were incubated with the virus/peptide mixtures for a period of 1 h30-2 h. The cells were washed and further incubated in MEM media containing fetal bovine serum and the same concentration of peptide that was used during the infection step. Plates were incubated 48 h at 37° C. and the mCherry fluorescence was measured using a spectrofluorometer (Tecan infinite M200PRO) with excitation and emission wavelengths of 580 and 620 nm, respectively (expressed in relative fluorescence units RFU). Non-infected HEp-2 cells were used as standards for fluorescence background levels. Each experiment was performed in duplicate and repeated at least twice.

Another series concerns the target T1, chymotrypsin (Bos taurus, UniProt P00766).
T1 construct: purchased Thermo Fisher Scientific
The experiment in a line: Proteolytic stability assay, chymotrypsin. The format is in vitro ADME. As to conditions: chymotrypsin (isolated protease); 100 mM Tris-HCl pH 8.0, 10 mM CaCl2, 25° C., LC-MS; read-out: t1/2 (min) Chymotrypsin. The method, then:
(§1) The compounds according to the invention are tested for their stability in a proteolytic stability assay as described below which is an important parameter to assess for the development of peptide therapeutics. Peptides of the invention 4bb, 4ca, 4a and their unstapled comparative peptide 4, as well as both SAH-RSVFBD isomers were treated with chymotrypsin and trypsin, and analysed by LC/MS to quantify the reaction products over time.
(§2) In vitro proteolytic degradation was measured via LC-MS using an Agilent Infinity 1280 UHPLC system coupled to an Agilent quadruple-time-of-flight (QTOF) 6530 with an Agilent Jet Stream electrospray ionisation (AJS ESI) source (all Agilent Technologies, Waldbronn, Germany). 5 μl of digested sample were injected onto a C18 column (Zorbax Eclipse Plus RRHD, 1.8 μm, 2.1*100 mm, Agilent Technologies, Waldbronn, Germany) equilibrated with solvent A and eluted with a flow rate of 0.4 ml/min over a 5-95% gradient of solvent B in 5 minutes, followed by 1.5 minutes at 95% and 0.5 minutes post-time where solvent A was 95% water, 5% acetonitrile with 0.2% formic acid and solvent B was 5% water, 95% acetonitrile with 0.2% formic acid. The AJS ESI source was operated with a capillary voltage of 4000V and a nozzle voltage of 600V with a drying gas temperature of 325° C. and flow rate of 10 l/min, nebulising gas pressure of 20 psi, and a sheath gas temperature of 300° C. and flow rate of 11l/min. Mass spectra were acquired in the positive ion mode from 100-3200 m/z at a rate of 1 scan per second in extended dynamic range (2 GHz) mode. The fragmentor, skimmer and octopole Radio Frequency voltages were set to 200, 60 and 750 V respectively. Data were acquired and analysed with Agilent MassHunter Workstation (version B.05).
(§3) Peptide digestion was performed as it follows: 10 μl of peptide at 0.29 mM in 50/50 acetonitrile/water were dissolved in 990 μl 100 mM Tris-HCl, pH 8.0 with 10 mM CaCl2. Following measurement of the undigested (to) sample, 10 μl of chymotrypsin at 50 μg/ml in 100 mM Tris-HCl, pH 8.0 with 10 mM CaCl2 were added and the sample was vortexed and placed immediately in the autosampler, set to 25° C. Trypsin digestion was performed as with chymotrypsin except that the buffer was in 50 mM Tris-HCl, pH8. Chymotrypsin and trypsin were purchased from Thermo Fisher Scientific.
(§4) The level of intact peptide was quantified by serial injection over time. Integration of the intact peptide compound chromatogram was performed using the Agilent Molecular Feature Extraction (MFE) algorithm. A plot of the intact peptide MFE peak area over time gave an exponential decay curve, from which the half-life was determined using MatLab […].

In the next series the test system is trypsin. As to the kind of experiment: Proteolytic stability assay, trypsin. The conditions noted are these: trypsin (isolated protease), pH 8; 50 mM Tris-HCl pH8, 25° C., LC-MS; read-out: t1/2 (min) Trypsin. The format is in vitro ADME. How it is done:
as §1, §2, §3, §4

For the next series, the system named is hRSV. As to conditions: literature; cited from earlier work.
A further series concerns bRSV. As to conditions: literature; cited from earlier work.

Turning to `CC[C@H](C)[C@@H]1NC(=O)[C@H](Cc2ccccc2)NC(=O)[C@@](C)(NC(=O)[C@H](CC(C)C)NC(=O)[C@H](CO)NC(=O)[C@]2(C)CCCC=CCCC[C@@](C)(NC(=O)[C@H](CCC(=O)O)NC(C)=O)C(=O)N[C@@H]([C@@H](C)CC)C(=O)N[C@@H](CC(N)=O)C(=O)N2)CCCC=CCCC[C@@](C)(C(=O)N[C@@H](CO)C(=O)N[C@@H](CC(=O)O)C(=O)N[C@@H](CCC(=O)O)C(=O)N[C@@H](CC(C)(C)C)C(=O)N[C@@H](CC(C)C)C(=O)N[C@@H](Cc2c[nH]cn2)C(=O)N[C@@H](CC(N)=O)C(=O)N[C@H](C(N)=O)C(C)C)NC(=O)[C@H](CCCNC(=N)N)NC1=O` [Peptide 4ca-var4, E Xaa2 IN Xaa5 SL Xaa8 FIR Xaa12 SDE Xaa16LHNV] (Ac-E[R5]IN[S5]SL[S5]FIR[S5]SDE[tBuAla]LHNV-NH2; staple 2-5, 8-12), the helicity in the series “circular dichroism” came out at 98.4%. Besides, the “% helicity” value in series [1] was 98.4%. Further, the EC50 in the series on RSV-mCherry (HEp-2 cells, 0.2 MOI RSV-mCherry, 48 h) is 0.2 ± 0.05 µM.

With `CC[C@H](C)[C@H](NC(=O)[C@H](CCCCN)NC(=O)[C@H](CCC(=O)O)NC(C)=O)C(=O)N[C@@H](CC(N)=O)C(=O)N[C@@H](CCC(N)=O)C(=O)N[C@@H](CO)C(=O)N[C@@H](CC(C)C)C(=O)N[C@@]1(C)CCCC=CCCC[C@@](C)(C(=O)N[C@@H](CO)C(=O)N[C@@H](CC(=O)O)C(=O)N[C@@]2(C)CCCC=CCCC[C@@](C)(C(=O)N[C@H](C(N)=O)C(C)C)NC(=O)[C@H](Cc3c[nH]cn3)NC(=O)[C@H](CC(C)C)NC(=O)[C@H](CC(C)C)NC2=O)NC(=O)[C@H](CCCNC(=N)N)NC(=O)[C@H]([C@@H](C)CC)NC(=O)[C@H](Cc2ccccc2)NC1=O` [Peptide 4a, EKINQSL Xaa8 FIR Xaa12 SD Xaa15 LLH Xaa19 V] (Ac-EKINQSL[S5]FIR[S5]SD[S5]LLH[S5]V-NH2; staple 8-12, 15-19), in series [1], the “% helicity” value was determined as 23.5%. Besides, the half-life at 2.9 µM at chymotrypsin is 4480 min; in the series with trypsin, 76 min.

`CC[C@H](C)[C@@H]1NC(=O)[C@H](Cc2ccccc2)NC(=O)[C@@H](NC(=O)[C@H](CC(C)C)NC(=O)[C@H](CO)NC(=O)[C@@H]2CCCC=CCCC[C@@](C)(NC(=O)[C@H](CCC(=O)O)NC(C)=O)C(=O)N[C@@H]([C@@H](C)CC)C(=O)N[C@@H](CC(N)=O)C(=O)N2)CCCC=CCCC[C@@H](C(=O)N[C@@H](CO)C(=O)N[C@@H](CC(=O)O)C(=O)N[C@@H](CCC(=O)O)C(=O)N[C@@H](CC(C)C)C(=O)N[C@@H](CC(C)C)C(=O)N[C@@H](Cc2c[nH]cn2)C(=O)N[C@@H](CC(N)=O)C(=O)N[C@H](C(N)=O)C(C)C)NC(=O)[C@H](CCCNC(=N)N)NC1=O` [Peptide 4ca2] (Ac-E[R5]IN[Nle(6-ylidene)]SL[Nle(6-ylidene)]FIR[Nle(6-ylidene)]SDELLHNV-NH2; staple 2-5, 8-12) displayed a helicity in the series “circular dichroism” of 58.1%. The “% helicity” value in series [1] stood at 58.1%.

`CC[C@H](C)[C@H](NC(=O)[C@H](CCCCN)NC(=O)[C@H](CCC(=O)O)NC(C)=O)C(=O)N[C@@]1(C)CCCC=CCCC[C@@](C)(C(=O)N[C@@H](Cc2ccccc2)C(=O)N[C@H](C(=O)N[C@@]2(C)CCCC=CCCC[C@@](C)(C(=O)N[C@@H](CC(C)C)C(=O)N[C@@H](CC(C)C)C(=O)N[C@@H](Cc3c[nH]cn3)C(=O)N[C@@H](CC(N)=O)C(=O)N[C@H](C(N)=O)C(C)C)NC(=O)[C@H](CC(=O)O)NC(=O)[C@H](CO)NC(=O)[C@H](CCCCN)NC2=O)[C@@H](C)CC)NC(=O)[C@H](CC(C)C)NC(=O)[C@H](CO)NC(=O)[C@H](CCC(N)=O)NC1=O` [Peptide 4bb, EKI Xaa4 QSL Xaa8 FI Xaa11 KSD Xaa15 LLHNV] (Ac-EKI[S5]QSL[S5]FI[S5]KSD[S5]LLHNV-NH2; staple 4-8, 11-15): the “% helicity” value in series [1] stood at 52.9%. Further, the half-life at 2.9 µM on chymotrypsin was 3010 min; in the series on trypsin, 20 min.

The compound `CC[C@H](C)[C@@H]1NC(=O)[C@H](Cc2ccccc2)NC(=O)[C@@](C)(NC(=O)[C@H](CC(C)C)NC(=O)[C@H](CO)NC(=O)[C@]2(C)CCCC=CCCC[C@@](C)(NC(=O)[C@H](CCC(=O)O)NC(C)=O)C(=O)N[C@@H]([C@@H](C)CC)C(=O)N[C@@H](CC(N)=O)C(=O)N2)CCCC=CCCC[C@@](C)(C(=O)N[C@@H](CO)C(=O)N[C@@H](CC(=O)O)C(=O)N[C@@H](CCC(=O)O)C(=O)N[C@@H](CC(C)C)C(=O)N[C@@H](CC(C)C)C(=O)N[C@@H](Cc2c[nH]cn2)C(N)=O)NC(=O)[C@H](CCCNC(=N)N)NC1=O` [Peptide 4ca18, E Xaa2 IN Xaa5 SL Xaa8 FIR Xaa12 SDELLH] (Ac-E[R5]IN[S5]SL[S5]FIR[S5]SDELLH-NH2; staple 2-5, 8-12) came in with a helicity in the series “circular dichroism” of 43%. Besides, the “% helicity” value in series [1] is listed as 43%.

In the case of `Cc1ccc(CCCO)c(NCc2ccc3nc(NCCCN4CCOCC4)n(Cc4nc(C)ccc4O)c3c2)c1` [TMC-353121], the “activity against hRSV” value in the series with hRSV is “active”. Moreover, in the series on bRSV, the “activity against bRSV” value is listed as “active”.

In the series “circular dichroism”, `CC[C@H](C)[C@@H]1NC(=O)[C@H](Cc2ccccc2)NC(=O)[C@@](C)(NC(=O)[C@H](CC(C)C)NC(=O)[C@H](CO)NC(=O)[C@]2(C)CCCC=CCCC[C@@](C)(NC(=O)[C@H](CCC(=O)O)NC(C)=O)C(=O)N[C@@H]([C@@H](C)CC)C(=O)N[C@@H](CC(N)=O)C(=O)N2)CCCC=CCCC[C@@](C)(C(=O)N[C@@H](CO)C(=O)N[C@@H](CC(=O)O)C(=O)N[C@@H](CCC(=O)O)C(=O)N[C@@H](CC(C)(C)C)C(=O)N[C@@H](CC(C)C)C(=O)N[C@@H](Cc2c[nH]cn2)C(N)=O)NC(=O)[C@H](CCCNC(=N)N)NC1=O` [Peptide 4ca-var8, E Xaa2 IN Xaa5 SL Xaa8 FIR Xaa12 SDE Xaa16LH] (Ac-E[R5]IN[S5]SL[S5]FIR[S5]SDE[tBuAla]LH-NH2; staple 2-5, 8-12) returned a helicity of 75.8%. Moreover, the “% helicity” value in series [1] is reported as 75.8%.

Consider `CC[C@H](C)[C@H](NC(=O)[C@H](Cc1ccccc1)NC(=O)[C@H](C)NC(=O)[C@H](CC(C)C)NC(=O)[C@H](CO)NC(=O)[C@H](CCC(N)=O)NC(=O)[C@H](CCC(=O)O)NC(C)=O)C(=O)N[C@@H](CCCNC(=N)N)C(=O)N[C@@H](CCCCN)C(=O)N[C@@H](CO)C(=O)N[C@@H](CC(=O)O)C(=O)N[C@@]1(C)CCCC=CCCC[C@@](C)(C(=O)N[C@H](C(N)=O)C(C)C)NC(=O)[C@H](Cc2c[nH]cn2)NC(=O)[C@H](CC(C)C)NC(=O)[C@H](CC(C)C)NC1=O` [Peptide 3c, reference compound] (Ac-EQSLAFIRKSD[S5]LLH[S5]V-NH2; staple 12-16), for which the “inhibitory activity in HEp-2 cells” value in the series on RSV-mCherry (RSV-mCherry) is “inactive”.

Source of the values: patent US11299518B2, “Fusion respiratory syncytial virus inhibitors and use thereof” (priority 2016, dated 2022).
